Results: US11724078B2, “Methods and systems for trans-tissue substance delivery using plasmaporation” (GOJO INDUSTRIES, INC., priority 2016, dated 2023)

Assay: Transport of substance applied to plasma treated area through open pores in the SC
Conditions: applied more than 5 minutes after plasma treatment

For Dextran [10 kDa Dextran], which “passage through the SC when applied after 5 minutes” value is on record?
Its value is “no longer passed through the SC”.
